Measurements from patent US8551999B2, “Heterocyclic compound and pharmaceutical composition thereof” (Otsuka Pharmaceutical Co., Ltd., priority 2007, dated 2013).

Tests used:
STAT3 = assay: Inhibitory effect on IL-6-induced STAT3 phosphorylation in human myeloma cells (in vitro); format: cell-based; conditions: U266B1 human myeloma cells, IL-6 1 ng/mL, pSTAT3 (Y705) by flow cytometry
Method: The inhibitory effect of the test compound on phosphorylation of STAT3 (signal transducer and activator of transcription-3) in human myeloma cells ([…]) induced by interleukin-6 (IL-6) was examined using the modified method of Tochizawa S. et al. (J Immunol Methods. 2006 Jun. 30; 313(1-2): 29-37). In the study, U266B1 cells were seeded in an RPMI 1640 medium containing 10% fetal bovine serum (FBS) in a 12-well plate and incubated at 37° C. for 2 hours in the presence of carbon dioxide. After incubation, IL-6 was added to yield the concentration of 1 ng/mL and the cells were incubated at 37° C. for 15 minutes in the presence of 5% carbon dioxide. After fixation of the cells by the addition of a buffer containing formaldehyde (Lyse/Fix Buffer, BD Biosciences) at room temperature for 10 minutes, the suspension was centrifuged to remove the supernatant and the cells were treated with ice-cold methanol for 10 minutes to improve the permeability of the cell membrane. The cells were centrifuged to remove methanol and washed twice with Dulbecco's phosphate buffered saline (D-PBS) containing 2% fetal bovine serum (FBS). A fluorescence-labeled anti-phosphorylated STAT3 (pSTAT3) antibody (Alexa Fluor 488-labeled anti-pSTAT3 (Y705) antibody, BD Biosciences) was added for staining in an ice bath for 30 minutes.
The cells were washed once with 2% FBS-containing D-PBS and suspended in 2% FBS-containing D-PBS, and the fluorescence intensity was determined using a flow cytometer (FACS Sort, BD Biosciences). The ratio of fluorescence intensity in the test group to the control group (T/C) was determined from the difference in the geometric mean of pSTAT3 fluorescence intensity between the test compound group of each concentration and the non-stimulated control group according to the following equation by defining the difference in the geometric mean of pSTAT3 fluorescence intensity between the IL-6 induced control and the non-stimulated control as 100%. T/C(%)=([…] of pSTAT3 fluorescence intensity in the cells treated with the test compound—geometric mean of pSTAT3 fluorescence intensity in non-stimulated control)/(geometric mean of fluorescence intensity of IL-6-induced pSTAT3 in the control−geometric mean of pSTAT3 fluorescence intensity in non-stimulated control)×100.
The concentration of the test compound inhibiting phosphorylation of STATS at 50% (IC50; concentration of the test compound corresponding to 50% T/C(%)) was determined using T/C(%) values at the respective concentrations and defined as the index for the inhibitory activity.

| SMILES | IC50 (STAT3) | melting point |
| --- | --- | --- |
| Br.CN(C(=O)c1ccc(C(F)(F)F)cc1)c1ccc(Oc2ccc3cc(C(=O)N4CCN(Cc5ccc(C#N)cc5)CC4)n(C)c3c2)nc1 [Example 321, N-(6-{2-[4-(4-Cyanobenzyl)piperazine-1-carbonyl]-1-methyl-1H-indol-6-yloxy}pyridin-3-yl)-N-methyl-4-trifluoromethylbenzamide hydrobromide] | < 10 nM | 267 to 270 °C |
| CN(C(=O)c1ccc(C(F)(F)F)cc1)c1ccc(Oc2ccc3c(c2)cc(C(=O)N2CCN(Cc4ccc(OC(F)(F)C(F)F)cc4)CC2)n3C)nc1.O=C(O)/C=C\C(=O)O [Example 403, N-Methyl-N-[6-(1-methyl-2-{4-[4-(1,1,2,2-tetrafluoroethoxy)-benzyl]piperazine-1-carbonyl}-1H-indol-5-yloxy)pyridin-3-yl]-4-trifluoromethylbenzamide maleate] | < 10 nM | 137 to 139 °C |
| CCOc1ccc(CN2CCN(C(=O)c3cc4cc(Oc5ccc(N(C)C(=O)c6ccc(C(F)(F)F)cc6)cn5)ccc4n3C)CC2)nc1.O=C(O)/C=C\C(=O)O [Example 417, N-(6-{2-[4-(5-Ethoxypyridin-2-ylmethyl)piperazine-1-carbonyl]-1-methyl-1H-indol-5-yloxy}pyridin-3-yl)-N-methyl-4-trifluoromethyl-benzamide maleate] | < 10 nM | 129 to 130 °C |
| CC(C)Oc1ccc(CN2CCN(C(=O)c3cc4ccc(Oc5ccc(N(C)S(=O)(=O)c6ccc(Cl)c(Cl)c6)cn5)cc4n3C)CC2)cc1 [Example 507, 3,4-Dichloro-N-(6-{2-[4-(4-isopropoxybenzyl)piperazine-1-carbonyl]-1-methyl-1H-indol-6-yloxy}pyridin-3-yl)-N-methyl-benzenesulfonamide] | < 10 nM | 186.8 to 187 °C |

Continued, values first:

| IC50 (STAT3) | melting point | SMILES |
| --- | --- | --- |
| < 10 nM | 131 to 135 °C | CCOc1ccc(CN2CCN(C(=O)c3cc4cc(Oc5ccc(N(C)C(=O)c6ccc(C(F)(F)F)cc6)cn5)ccc4n3C)CC2)cc1.O=C(O)/C=C\C(=O)O [Example 342, N-(6-{2-[4-(4-Ethoxybenzyl)piperazine-1-carbonyl]-1-methyl-1H-indol-5-yloxy}pyridin-3-yl)-N-methyl-4-trifluoromethylbenzamide maleate] |
| < 10 nM | 246 to 248 °C | Br.CCCOc1ccc(CN2CCN(C(=O)c3cc4ccc(Oc5ccc(N(C)C(=O)c6ccc(C(F)(F)F)cc6)cn5)cc4n3C)CC2)cc1 [Example 420, N-Methyl-N-(6-{1-methyl-2-[4-(4-propoxybenzyl)piperazine-1-carbonyl]-1H-indol-6-yloxy}pyridin-3-yl)-4-trifluoromethyl-benzamide hydrobromide] |
| < 10 nM | 251 to 253 °C | Br.CC(C)Oc1ccc(CN2CCN(C(=O)c3cc4ccc(Oc5ccc(N(C)C(=O)c6ccc(C(F)(F)F)cc6)cn5)cc4n3C)CC2)cc1 [Example 421, N-(6-{2-[4-(4-Isopropoxybenzyl)piperazine-1-carbonyl]-1-methyl-1H-indol-6-yloxy}pyridin-3-yl)-N-methyl-4-trifluoromethyl-benzamide hydrobromide] |
| < 10 nM | 140.9 to 145.8 °C | Cc1ccc(S(=O)(=O)N(C)c2ccc(Oc3ccc4cc(C(=O)N5CCN(Cc6ccc(OC(C)C)cc6)CC5)n(C)c4c3)nc2)cc1 [Example 525, N-(6-{2-[4-(4-Isopropoxybenzyl)piperazine-1-carbonyl]-1-methyl-1H-indol-6-yloxy}pyridin-3-yl)-4,N-dimethylbenzenesulfonamide] |
| < 10 nM | 240 to 243 °C | Cc1ccc(S(=O)(=O)N(C)c2ccc(Oc3ccc4cc(C(=O)N5CCN(Cc6ccc7c(c6)OC(F)(F)O7)CC5)n(C)c4c3)nc2)cc1.Cl [Example 526, N-(6-{2-[4-(2,2-Difluorobenzo[1,3]dioxol-5-ylmethyl)piperazine-1-carbonyl]-1-methyl-1H-indol-6-yloxy}pyridin-3-yl)-4,N-dimethyl-benzenesulfonamide hydrochloride] |
